3 compounds from US20040192697A1, “Pyrrolopyridine potassium channel openers” (priority 2002, published 2004) can be followed below.

Broadly, the melting point is the temperature, or range, at which the solid turns liquid.

For data set [1], the system named is Landrace pig bladder strips. The data set can be described thus: In vitro functional model: field-stimulated bladder tissue strips. The note with it: dose dependent over concentration range of 10^−9 to 10^−5 M; control agonist. The protocol:
In vitro Functional Model
Compounds were evaluated for functional BK channel opening activity using tissue strips obtained from Landrace pig bladders. Landrace pig bladders were obtained from female Landrace pigs of 9-30 kg. Landrace pigs were euthanized with an intraperitoneal injection of pentobarbital solution, Somlethal®, J. A. Webster Inc., Sterling Mass. The entire bladder was removed and immediately placed into Krebs Ringer bicarbonate solution (composition, mM: NaCl, 120; NaHCO3, 20; dextrose, 11; KCl, 4.7; CaCl2, 2.5; MgSO4, 1.5; KH2PO4, 1.2; K2EDTA, 0.01, equilibrated with 5% CO2/95% O2 pH 7.4 at 37° C.). Propranolol (0.004 mM) was included in all of the assays to block β-adrenoceptors. The trigonal and dome portions were discarded. Strips 3-5 mm wide and 20 mm long were prepared from the remaining tissue cut in a circular fashion. The mucosal layer was removed. One end was fixed to a stationary glass rod and the other to a Grass FT03 transducer at a basal preload of 1.0 gram. Two parallel platinum electrodes were included in the stationary glass rod to provide field stimulation of 0.05 Hz, 0.5 milli-seconds at 20 volts. […] The maximal efficacy of each compound (expressed as % relative to P1075) is reported. […] Agonist potencies were also expressed as an index relative to P1075. The index was calculated by dividing the ED50 for P1075 by the ED50 for the test agonist in a given tissue. […]

Compound `N#Cc1c(N2CCC[C@H]2CO)[nH]c2cccnc12` [Example 10, (S)-2-(2-Hydroxymethyl-pyrrolidin-1-yl)-1H-pyrrolo[3,2-b]pyridine-3-carbonitrile] returned a melting point of 207 to 209 °C. `N#Cc1c(N2CCCCC2)[nH]c2cccnc12` [Example 18, 2-Piperidin-1-yl-1H-pyrrolo[3,2-b]pyridine-3-carbonitrile]: the melting point was in the range of 241 to 242 °C. With `CCC(C)(C)N=C(NC#N)Nc1cccnc1` [Example P1075], in data set [1], the “effect on stimulated twitch of bladder strips” value is “completely eliminated the stimulated twitch”.
